Laboratory results from ChEMBL document CHEMBL4613290, “Discovery of Reversible Inhibitors of KDM1A Efficacious in Acute Myeloid Leukemia Models” (ACS Med Chem Lett, 2020).
pIC50: −log10 of the molar value.

Key:
[1] = biological target: Lysine-specific histone demethylase 1A (Homo sapiens, UniProt O60341); experiment: Inhibition of recombinant human LSD1 expressed in Escherichia coli using biotinylated H3K4me as substrate by TR-FRET assay
[2] = system: THP-1; experiment: Anticlonogenic activity against human THP1 cells assessed as inhibition of colony formation at 50 nM measured after 13 days relative to control; assay type: functional; settings: THP-1, 312 h
[3] = system: THP-1; experiment: Anticlonogenic activity against human THP1 cells assessed as inhibition of colony formation at 500 nM measured after 13 days relative to control; assay type: functional; settings: THP-1, 312 h
[4] = Cmax in CD-1 mouse at 5 mg/kg, iv administered as single dose; assay type: ADME, organism-based; set-up: dose 5 mg/kg, route intravenous; settings: in vivo
[5] = AUC (0 to infinity) in CD-1 mouse at 5 mg/kg, iv administered as single dose; assay type: ADME, organism-based; set-up: dose 5 mg/kg, time infinity, route intravenous; settings: in vivo
[6] = Toxicity in non-irradiated mouse injected with APL blast cells assessed as effect on body weight at 15 and 30 mg/kg, po administered 5 days per week for 2 weeks starting after 10 days post-injection; assay type: organism-based; settings: in vivo
[7] = Volume of distribution at steady state in CD-1 mouse at 5 mg/kg, iv administered as single dose; assay type: ADME, organism-based; settings: in vivo, read-out: Vdss
[8] = Tmax in CD-1 mouse at 15 mg/kg, po administered as single dose; assay type: ADME, organism-based; settings: in vivo
[9] = Cmax in CD-1 mouse at 15 mg/kg, po administered as single dose; assay type: ADME, organism-based; set-up: dose 15 mg/kg, route oral; settings: in vivo
[10] = Antitumor activity against mouse APL blast injected in non-irradiated mouse assessed as increase in mouse survival at 30 mg/kg, po administered 5 days per week for 2 weeks starting after 10 days post-injection by Kaplan-Meier plot analysis relative to control; assay type: functional
[11] = AUC (0 to infinity) in CD-1 mouse at 15 mg/kg, po administered as single dose; assay type: ADME, organism-based; set-up: dose 15 mg/kg, time infinity, route oral; settings: in vivo
[12] = Antitumor activity against human MLL-AF9 xenografted in sub-lethal irradiated C57BL6JCRL mouse assessed as increase in mouse survival at 15 mg/kg, po administered 5 days per week for 2 weeks starting after 10 days post-injection by Kaplan-Meier plot analysis relative to control; assay type: functional
[13] = Antitumor activity against human MLL-AF9 xenografted in sub-lethal irradiated C57BL6JCRL mouse assessed as increase in mouse survival at 30 mg/kg, po administered 5 days per week for 2 weeks starting after 10 days post-injection by Kaplan-Meier plot analysis relative to control; assay type: functional
[14] = Toxicity in non-irradiated mouse injected with APL blast cells assessed as effect on body weight at 60 mg/kg, po administered 5 days per week for 2 weeks starting after 10 days post-injection measured after 1st week of treatment; assay type: organism-based; settings: in vivo
[15] = system: Mus musculus; experiment: Antitumor activity against mouse APL blast injected in non-irradiated po dosed mouse assessed as increase in mouse survival administered 5 days per week for 2 weeks starting after 10 days post-injection by Kaplan-Meier plot analysis relative to control; assay type: functional, organism-based
[16] = Half life in CD-1 mouse at 5 mg/kg, iv administered as single dose; assay type: ADME, organism-based; settings: in vivo
[17] = Oral bioavailability in CD-1 mouse at 15 mg/kg administered as single dose; assay type: ADME, organism-based; settings: in vivo
[18] = Antitumor activity against mouse APL blast injected in non-irradiated mouse assessed as increase in mouse survival at 15 mg/kg, po administered 5 days per week for 2 weeks starting after 10 days post-injection by Kaplan-Meier plot analysis relative to control; assay type: functional
[19] = Toxicity in sub-lethal irradiated C57BL6JCRL mouse xenografted with human MLL-AF9 cells assessed as effect on body weight at 15 to 30 mg/kg, po administered 5 days per week for 2 weeks starting after 10 days post-injection; assay type: organism-based; settings: in vivo
[20] = Clearance in CD-1 mouse at 5 mg/kg, iv administered as single dose; assay type: ADME, organism-based; settings: in vivo

| Compound | pIC50 [1] | inhibition at 0.05 µM [2] [%] | inhibition at 0.5 µM [3] [%] | further results |
| --- | --- | --- | --- | --- |
| Cn1c(-c2nnc(-c3ccccc3)[nH]2)cc2sccc21 | < 4.00 | – | – | – |
| Cn1c(-c2ncc(-c3ccccc3)o2)cc2sccc21 | < 4.00 | – | – | – |
| Cn1c(-c2nc3ccccc3[nH]2)cc2sccc21 | < 4.00 | – | – | – |
| Cn1c(NC(=O)c2ccccc2)cc2sccc21 | < 4.00 | – | – | – |
| Cn1c(-c2nnc(-c3ccccc3)o2)cc2sccc21 | < 4.00 | – | – | – |
| CCc1cn(CCCc2ccc(OC3CCNCC3)cc2)c(-c2cc3sccc3n2C)n1 | – | 33.3 | 61.4 | – |
| CCCc1cn(CCCc2ccc(OC3CCCNCC3)cc2)c(-c2cc3sccc3n2C)n1 (stereo not given) | – | 46.6 | 64.2 | – |
| CCc1cn(CCOc2ccc(OC3CCNCC3)cc2)c(-c2cc3sccc3n2C)n1 | – | 27.6 | 72.3 | – |
| Cn1c(-c2nc(C3CCC3)cn2CCCc2ccc(OC3CCNCC3)cc2)cc2sccc21 | – | 38.8 | 72.3 | Cmax [4]: 2540 nM; AUC(0-inf) [5]: 4.2 µM·h; Activity [6]: Non-Toxic; Vd [7]: 10.2 L/kg; Tmax [8]: 0.417 h; Cmax [9]: 320 nM; Activity [10]: 55%; AUC(0-inf) [11]: 2.03 µM·h; Activity [12]: 29%; Activity [13]: 70%; Activity [14]: Toxic; Activity [15]: Dose-dependent effect; half-life [16]: 6 h; bioavailability [17]: 17%; Activity [18]: 20%; Activity [19]: Non-Toxic; clearance [20]: 37.5 mL/min/kg |
| Cn1c(-c2nc(C3CCC3)cn2CCOc2ccc(OC3CCNCC3)cc2)cc2sccc21 | – | 33 | 73.3 | – |
| Cn1c(C(=O)Cc2ccccc2)cc2sccc21 | < 4.00 | – | – | – |
| Cn1c(-c2nc(C3CCC3)cn2CCCc2ccc(OC3CCCNCC3)cc2)cc2sccc21 (stereo not given) | – | 40.9 | 74.2 | – |
